Literature values as cited in patent US20210329918A1, “AQUEOUS COMPOSITIONS OF TOPRAMEZONE” (BASF SE, priority 2018, published 2021).

Settings: 25° C.

For Cc1c(C(=O)c2cnn(C)c2O)ccc(S(C)(=O)=O)c1C1=NOCC1 [topramezone, 4-[3-(4,5-dihydro-1,2-oxazol-3-yl)-2-methyl-4-methylsulfonylbenzoyl]-2-methyl-1H-pyrazol-3-one], the “solubility of topramezone in water” value is listed as “about 0.305 g/L”.
